Structures can show the parent of a compound that is named as a salt. Where two headings read alike, the source gives them in different places.
Tests used:
[1] = system: BCL-2-dependent acute lymphoblastic leukemia (ALL) cell line RS4;11; test: In vitro anti-proliferation assay (ATPlite luminescence) in RS4;11; assay type: cell-based; settings: RS4;11 cells, about 72 hours, medium with 5% FBS or 10% normal human serum
Procedure: Cell antiproliferation was assayed by PerkinElmer ATPlite™ Luminescence Assay System. Briefly, the various test cancer cell lines were plated at a density of about 1×10^4 cells per well in Costar 96-well plates, and were incubated with different concentrations of compounds for about 72 hours in medium supplemented with 5% FBS or 10% normal human serum (NHS). One lyophilized substrate solution vial was then reconstituted by adding 5 mL of substrate buffer solution, and was agitated gently until the solution was homogeneous. About 50 μL of mammalian cell lysis solution was added to 100 μL of cell suspension per well of a microplate, and the plate was shaken for about five minutes in an orbital shaker at 700 rpm. This procedure was used to lyse the cells and to stabilize the ATP. Next, 50 μL substrate solution was added to the wells and microplate was shaken for five minutes in an orbital shaker at 700 rpm. Finally, the luminescence was measured by a PerkinElmer TopCount® Microplate Scintillation Counter. Such assays, carried out with a range of doses of test compounds, allowed the determination of the cellular anti-antiproliferative IC50 of the compounds of the present invention.

[2] = target: BCL-2 (Homo sapiens (Human), UniProt P10415); test: BCL-2 competition binding (fluorescence polarization) assay; settings: read-out: BCL2 IC50
Procedure: Biological Example 1: BCL-2 Competition Binding (Fluorescence Polarization) Assay
The fluorescence-labeled 23 amino acid peptide BH3 was purchased from CalBiochem ([…]). […] This binding assay was performed in 96-well plate and with each assay contained 15 and 30 nM of labeled peptide and purified BCL-2 protein (purchased from R&D Systems, Inc). The assay buffer contained 20 mM Hepes (pH 7.0), 50 mM KCl, 5 mM MgCl2, 20 mM Na2MoO4, 0.1 mg/ml Bovine Gamma Globulin and 0.01% NP40. Compounds were diluted in DMSO and added to the final assay with concentration range from 20 μM to 2 nM. The polarization degree (mP) value was determined by BioTek Synergy II with background subtraction after 3 hours of incubation at room temperature. IC50 was calculated using Prism software with sigmoidal dose-response curve fitting. ABT-737 was used as reference compound. Such assays, carried out with a range of doses of test compounds, allowed the determination of an approximate IC50 value.

[3] = fluorescein-labeled BH3 peptide 15 nM, purified BCL-2 protein 30 nM, 3 hours incubation at room temperature

Chain of BCL-2 (P10415 whole entry): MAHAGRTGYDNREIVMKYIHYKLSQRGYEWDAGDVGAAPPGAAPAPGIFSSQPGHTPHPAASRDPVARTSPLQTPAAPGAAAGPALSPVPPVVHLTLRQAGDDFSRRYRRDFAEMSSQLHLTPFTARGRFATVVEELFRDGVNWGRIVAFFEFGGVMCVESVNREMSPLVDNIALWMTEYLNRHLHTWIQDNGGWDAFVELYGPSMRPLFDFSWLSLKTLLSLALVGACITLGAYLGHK

Compound	IC50 [1]	IC50 [2, 3]	IC50 [2]
Cc1ncsc1-c1ccc(CNC(=O)[C@@H]2C[C@@H](O)CN2C(=O)[C@@H](NC(=O)CCOCCOCCOCCOCCNc2ccc(S(=O)(=O)NC(=O)c3ccc(N4CCN(CC5=C(c6ccc(Cl)cc6)CC(C)(C)CC5)CC4)cc3N3CCCOc4nc5[nH]ccc5cc43)cc2[N+](=O)[O-])C(C)(C)C)cc1 [Example 57, (2S,4R)-1-[(2S)-2-[1-[(4-[[4-(4-[[2-(4-chlorophenyl)-4,4-dimethylcyclohex-1-en-1-yl]methyl]piperazin-1-yl)-2-[14-oxa-2,4,10-triazatricyclo[7.5.0.0^[3,7]]tetradeca-1(9),2,5,7-tetraen-10-yl]phenyl]formamidosulfonyl]-2-nitrophenyl)amino]-3,6,9,12-tetraoxapentadecan-15-amido]-3,3-dimethylbutanoyl]-4-hydroxy-N-[[4-(4-methyl-1,3-thiazol-5-yl)phenyl]methyl]pyrrolidine-2-carboxamide]	68 nM	0.5 nM	
CC1(C)CCC(CN2CCN(c3ccc(C(=O)NS(=O)(=O)c4ccc(NC[C@H]5COCCO5)c([N+](=O)[O-])c4)c(N4CCCOc5nc(N)ccc54)c3)CC2)=C(c2ccc(Cl)cc2)C1 [Example 39, 2-[7-amino-2H,3H,4H-pyrido[2,3-b][1,4]oxazepin-1-yl]-4-(4-[[2-(4-chlorophenyl)-4,4-dimethylcyclohex-1-en-1-yl]methyl]piperazin-1-yl)-N-(4-[[(2S)-1,4-dioxan-2-ylmethyl]amino]-3-nitrobenzenesulfonyl)benzamide]	544 nM	1.5 nM	
O=C(NS(=O)(=O)c1ccc(NC[C@H]2COCCO2)c([N+](=O)[O-])c1)c1ccc(N2CCN(CC3=C(c4ccc(Cl)cc4)CCCC3)CC2)cc1N1CCCOc2nc3[nH]ccc3cc21 [Example 74, 4-(4-[[2-(4-chlorophenyl)cyclohex-1-en-1-yl]methyl]piperazin-1-yl)-N-(4-[[(2S)-1,4-dioxan-2-ylmethyl]amino]-3-nitrobenzenesulfonyl)-2-[14-oxa-2,4,10-triazatricyclo[7.5.0.0^[3,7]]tetradeca-1(9),2,5,7-tetraen-10-yl]benzamide]	1.7 nM	0.3 nM	
CC1(C)CCC(CN2CCN(c3ccc(C(=O)NS(=O)(=O)c4ccc(NCCOCCOCCOCCNc5cccc6c5C(=O)N(C5CCC(=O)NC5=O)C6=O)c([N+](=O)[O-])c4)c(N4CCCOc5nc6[nH]ccc6cc54)c3)CC2)=C(c2ccc(Cl)cc2)C1 (stereo not drawn) [Example 53, 4-(4-[[2-(4-chlorophenyl)-4,4-dimethylcyclohex-1-en-1-yl]methyl]piperazin-1-yl)-N-[4-(12-[[2-(2,6-dioxopiperidin-3-yl)-1,3-dioxoisoindol-4-yl]amino]-4,7,10-trioxa-1-azadodecan-1-yl)-3-nitrobenzenesulfonyl]-2-[14-oxa-2,4,10-triazatricyclo[7.5.0.0^[3,7]]tetradeca-1(9),2,5,7-tetraen-10-yl]benzamide]	79 nM	1.2 nM	
CC1(C)CCC(CN2CCN(c3ccc(C(=O)NS(=O)(=O)c4ccc(NC[C@H]5COCCO5)c([N+](=O)[O-])c4)c(N4CCOCc5nc6[nH]ccc6cc54)c3)CC2)=C(c2ccc(Cl)cc2)C1 [Example 41, 4-(4-[[2-(4-chlorophenyl)-4,4-dimethylcyclohex-1-en-1-yl]methyl]piperazin-1-yl)-N-(4-[[(2S)-1,4-dioxan-2-ylmethyl]amino]-3-nitrobenzenesulfonyl)-2-[13-oxa-2,4,10-triazatricyclo[7.5.0.0^[3,7]]tetradeca-1(9),2,5,7-tetraen-10-yl]benzamide hydrochloride]	1.1 nM		0.1 nM
CC1(C)CCC(CN2CCN(c3ccc(C(=O)NS(=O)(=O)c4ccc(NCC5CCOCC5)c([N+](=O)[O-])c4)c(N4CCCSc5nc6[nH]ccc6cc54)c3)CC2)=C(c2ccc(Cl)cc2)C1 [Example 27, 4-(4-((4′-chloro-5,5-dimethyl-3,4,5,6-tetrahydro-[1,1′-biphenyl]-2-yl)methyl)piperazin-1-yl)-2-(3,4-dihydro-2H-pyrrolo[3′,2′:5,6]pyrido[2,3-b][1,4]thiazepin-1(7H)-yl)-N-((3-nitro-4-(((tetrahydro-2H-pyran-4-yl)methyl)amino)phenyl)sulfonyl)benzamide]	21 nM	0.3 nM	
CC1(C)CCC(CN2CCN(c3ccc(C(=O)NS(=O)(=O)c4ccc(NCC5CCOCC5)c([N+](=O)[O-])c4)c(N4CCCCOc5nc6[nH]ccc6cc54)c3)CC2)=C(c2ccc(Cl)cc2)C1 [Example 69, 4-(4-[[2-(4-chlorophenyl)-4,4-dimethylcyclohex-1-en-1-yl]methyl]piperazin-1-yl)-N-(3-nitro-4-[[(oxan-4-yl)methyl]amino]benzenesulfonyl)-2-[15-oxa-2,4,10-triazatricyclo[7.6.0.0^[3,7]]pentadeca-1(9),2,5,7-tetraen-10-yl]benzamide]	28.6 nM		0.6 nM
CC1(C)CCC(CN2CCN(c3ccc(C(=O)NS(=O)(=O)c4ccc(NCC5CCOCC5)c([N+](=O)[O-])c4)c(N4CCOc5ccccc54)c3)CC2)=C(c2ccc(Cl)cc2)C1 [Example 33, 4-(4-[[2-(4-chlorophenyl)-4,4-dimethylcyclohex-1-en-1-yl]methyl]piperazin-1-yl)-2-(3,4-dihydro-2H-1,4-benzoxazin-4-yl)-N-(3-nitro-4-[[(oxan-4-yl)methyl]amino]benzenesulfonyl)benzamide]		42.6 nM	
CC1(C)CCC(CN2CCN(c3ccc(C(=O)NS(=O)(=O)c4ccc(NCC5CCOCC5)c([N+](=O)[O-])c4)c(N4CCCOc5ncccc54)c3)CC2)=C(c2ccc(Cl)cc2)C1 [Example 35, 4-(4-[[2-(4-chlorophenyl)-4,4-dimethylcyclohex-1-en-1-yl]methyl]piperazin-1-yl)-N-[3-nitro-4-[(oxan-4-ylmethyl)amino]benzenesulfonyl]-2-[2H,3H,4H-pyrido[2,3-b][1,4]oxazepin-1-yl]benzamide]		27 nM	
CC1(C)CCC(CN2CCN(c3ccc(C(=O)NS(=O)(=O)c4ccc(NC[C@H]5COCCO5)c([N+](=O)[O-])c4)c(N4C(=O)COc5nc6[nH]ccc6cc54)c3)CC2)=C(c2ccc(Cl)cc2)C1 [Example 76, 4-(4-[[2-(4-chlorophenyl)-4,4-dimethylcyclohex-1-en-1-yl]methyl]piperazin-1-yl)-N-(4-[[(2S)-1,4-dioxan-2-ylmethyl]amino]-3-nitrobenzenesulfonyl)-2-[11-oxo-13-oxa-2,4,10-triazatricyclo[7.4.0.0[3,7]]trideca-1(9),2,5,7-tetraen-10-yl]benzamide]	54 nM		
CC1(C)CCC(CN2CCN(c3ccc(C(=O)NS(=O)(=O)c4ccc(NCC5CCOCC5)c([N+](=O)[O-])c4)c(N4CC(F)(F)COc5nc6[nH]ccc6cc54)c3)CC2)=C(c2ccc(Cl)cc2)C1 [Example 36, 4-(4-[[2-(4-chlorophenyl)-4,4-dimethylcyclohex-1-en-1-yl]methyl]piperazin-1-yl)-2-[12,12-difluoro-14-oxa-2,4,10-triazatricyclo[7.5.0.0^[3,7]]tetradeca-1(9),2,5,7-tetraen-10-yl]-N-(3-nitro-4-[[(oxan-4-yl)methyl]amino]benzenesulfonyl)benzamide]	0.95 nM		
CC1(C)CCC(CN2CCN(c3ccc(C(=O)NS(=O)(=O)c4ccc(NCC5CCOCC5)c([N+](=O)[O-])c4)c(N4CCOc5ccncc54)c3)CC2)=C(c2ccc(Cl)cc2)C1 [Example 34, 4-(4-[[2-(4-chlorophenyl)-4,4-dimethylcyclohex-1-en-1-yl]methyl]piperazin-1-yl)-N-[3-nitro-4-[(oxan-4-ylmethyl)amino]benzenesulfonyl]-2-[2H,3H-pyrido[4,3-b][1,4]oxazin-4-yl]benzamide]		122 nM	
CC1(C)CCC(CN2CCN(c3ccc(C(=O)NS(=O)(=O)c4ccc(NCC5CCOCC5)c([N+](=O)[O-])c4)c(N4CCC(c5ccccn5)Oc5nc6[nH]ccc6cc54)c3)CC2)=C(c2ccc(Cl)cc2)C1 (stereo not drawn) [Example 40, 4-(4-[[2-(4-chlorophenyl)-4,4-dimethylcyclohex-1-en-1-yl]methyl]piperazin-1-yl)-N-[3-nitro-4-[(oxan-4-ylmethyl)amino]benzenesulfonyl]-2-[13-(pyridin-2-yl)-14-oxa-2,4,10-triazatricyclo[7.5.0.0^[3,7]]tetradeca-1(9),2,5,7-tetraen-10-yl]benzamide hydrochloride]	5.6 nM		
CC1(C)CCC(CN2CCN(c3ccc(C(=O)NS(=O)(=O)c4ccc(NC[C@H]5COCCO5)c([N+](=O)[O-])c4)c(N4CCCOc5nc6[nH]ccc6cc54)c3)CC2)=C(c2ccc(O)cc2)C1 [Example 38, N-(4-[[(2S)-1,4-dioxan-2-ylmethyl]amino]-3-nitrobenzenesulfonyl)-4-(4-[[2-(4-hydroxyphenyl)-4,4-dimethylcyclohex-1-en-1-yl]methyl]piperazin-1-yl)-2-[14-oxa-2,4,10-triazatricyclo[7.5.0.0^[3,7]]tetradeca-1(9),2,5,7-tetraen-10-yl]benzamide]			47 nM

From patent US12220419B2, “BCL-2 inhibitors” (Newave Pharmaceutical Inc., priority 2018, dated 2025)
